16 compounds from US20240034753A1, “THERAPEUTIC PEPTIDES” (COHBAR, INC., priority 2020, published 2024) can be followed below.

Test [1] concerns A172 human brain glioblastoma cell line. Description: Caspase-Glo 3/7 assay of caspase 3/7 activity in cultured cells. To be noted: peptide 10 μM, 18-20 hours, relative to 0.1% DMSO control. Format: cell-based. As to the method: The effect of the peptides on cell death/survival can be assessed using a […] assay in cultured cells. Peptides were dissolved at 10 mM in DMSO as stock solutions for use at a final concentration of 10 μM. […] Caspase-Glo 3/7 Assay Reagent was purchased from Promega (Madison, WI). A172 human brain glioblastoma cell line was purchased from American Type Culture Collection (Manassas, VA). A172 cells were grown in DMEM supplemented with 10% FBS with 100 IU/ml penicillin and 100 μg/ml streptomycin. Cultures were maintained at 37° C. in a humidified atmosphere of 5% CO2/95% air. A172 cells were seeded at 8,000 cells per well on 96-well plates. […] Caspase 3/7 activity was determined using a Caspase-Glo 3/7 Assay kit (Promega) according to the manufacturer's instructions. Luminescence for each sample well on the plate was measured using a Cytation 3 plate reader (BioTek, Winooski, VT). Activity was calculated relative to 0.1% DMSO control.

In a further test the test system is C2C12 Mouse Myoblasts. In words: Glucose utilization (glucose remaining in medium). As to conditions: peptide 10 μM, 18-22 hours, relative to 0.1% DMSO treated control cells. Type of test: cell-based. As for the experimental part:
The effect of the peptides on glucose metabolism can be assessed using an assay of glucose utilization in cultured cells such as mouse myoblasts. Peptides were initially prepared as 10 mM stock in DMSO and used at a final concentration of 10 μM (0.1% DMSO). C2C12 mouse myoblast cell line was purchased from American Type Culture Collection (Manassas, VA). C2C12 cultures were maintained at 37° C. in a humidified atmosphere of 5% CO2/95% air with medium changes every second day. C2C12 cells were grown in DMEM (1 g/L glucose) supplemented with 10% FBS with 100 IU/ml penicillin and 100 μg/ml streptomycin. C2C12 cells were seeded at 7,000 cells per well on 96-well plates and cultured to confluence. Once the cell reached confluence the media was changed to DMEM (1 g/L glucose) supplemented with 2% HS with 100 IU/ml penicillin and 100 μg/ml streptomycin and maintained at 37° C. in a humidified atmosphere of 5% CO2/95% air. 5 days post-induction of differentiation fresh DMEM (1 g/L glucose) supplemented with 2% HS with 100 IU/ml penicillin and 100 μg/ml streptomycin was added to cultures. Cells were maintained at 37° C. in a humidified atmosphere of 5% CO2 and 95% air for 5 hours. After 5 hours test peptides at 10 μM or controls (0.5 mM or 1 mM metformin in 1% DMSO) prepared in fresh differentiation medium were added to cells and the cultures were maintained at 37° C. in a humidified atmosphere of 5% CO2/95% air for 18-22 hours. At the end of the incubation culture media was removed from the cells and the remaining glucose concentration was measured using a Glucose Assay kit (Abcam) according to the manufacturer's instructions, using a Cytation 3 plate reader at 570 nm (BioTek, Winooski, VT). Glucose concentrations in the medium were calculated relative to 0.1% DMSO treated control cells. The relative standard deviation of the result for the 0.1% DMSO treated control was <20%. Metformin was used as a positive control for reduction of glucose levels (increased glucose utilization glucose levels for treatment with metformin (1 mM) treatment were <20% of the 0.1% DMSO treated control value. The results are reported in Table 11.

Square brackets hold non-standard residues; d marks the D form. Ends that are not written are not given here. Peptide text beside a SMILES is read from it. Nle = CCCC[C@H](N)C(=O)O

Take `CC[C@H](C)[C@H](NC(=O)[C@@H](NC(=O)[C@H](Cc1c[nH]cn1)NC(=O)[C@H](CCCNC(=N)N)NC(=O)[C@H](CC(=O)O)NC(=O)[C@H](Cc1ccc(O)cc1)NC(=O)[C@H](CC(C)C)NC(=O)[C@H](CC(C)C)NC(=O)[C@@H](NC(=O)[C@@H](N)Cc1c[nH]c2ccccc12)C(C)C)C(C)C)C(=O)NCC(=O)NCC(=O)N[C@@H](CO)C(=O)N[C@@H](CC(C)C)C(=O)N[C@@H](CS)C(=O)N[C@H](C(=O)N[C@H](C(=O)N[C@H](C(=O)N[C@@H](CCC(N)=O)C(=O)N[C@H](C(=O)N[C@@H](CCC(=O)O)C(=O)N[C@H](C)C(=O)N[C@@H](Cc1ccc(O)cc1)C(=O)O)C(C)C)C(C)C)C(C)C)C(C)C` [compound 23] (H-WVLLYDRHVIGGSLCVVVQVE[dA]Y-OH; N-terminus and C-terminus assumed): in test [1], the “Caspase 3/7 Activity, Percent of Control Activity” value (from here on “Caspase 3/7 Activity, Percent”) turned out to be 104.3%. Also, in the test with C2C12 Mouse Myoblasts, the “Glucose Utilization (glucose concentration in medium), Percent of Untreated Control” value is 109.6%.
On to `CC[C@H](C)[C@H](NC(=O)[C@@H](NC(=O)CNC(=O)[C@@H](C)NC(=O)[C@@H](N)CCSC)C(C)C)C(=O)N[C@@H](CCCNC(=N)N)C(=O)NCC(=O)N[C@H](C(=O)N[C@@H](CC(C)C)C(=O)N[C@H](C(=O)N[C@@H](CC(C)C)C(=O)O)C(C)C)C(C)C` [compound 9] (H-M[dA]GVIRGVLVL-OH; N-terminus and C-terminus assumed), for which the “Caspase 3/7 Activity, Percent” value in test [1] was found to be 89.3%. Also, the “Glucose Utilization (glucose concentration in medium), Percent of Untreated Control” value in the test with C2C12 Mouse Myoblasts is reported as 128.4%.
In the same order, the values of MRRRMFSCYLY [compound 17] are 91.3% and 121.7%.
The corresponding values for MAGVIRGVLVL [compound 8] are 86.7% and 115.0%.
The corresponding values for MMAGVIRGVLVL [compound 7] are 84.6% and 128.3%.
For `CC[C@H](C)[C@H](NC(=O)[C@@H](NC(=O)CNC(=O)[C@@H](C)NC(=O)[C@@H](N)CCSC)C(C)C)C(=O)N[C@@H](CCCNC(=N)N)C(=O)N[C@@H](C)C(=O)N[C@H](C(=O)N[C@@H](CC(C)C)C(=O)N[C@H](C(=O)N[C@@H](CC(C)C)C(=O)O)C(C)C)C(C)C` [compound 10] (H-M[dA]GVIRAVLVL-OH; N-terminus and C-terminus assumed), the “Caspase 3/7 Activity, Percent” value in test [1] is reported as 82.6%. Also, the “Glucose Utilization (glucose concentration in medium), Percent of Untreated Control” value in the test on C2C12 Mouse Myoblasts is on record as 109.1%.
Turning to `CCCC[C@H](NC(=O)[C@H](CCCNC(=N)N)NC(=O)[C@H](CCCNC(=N)N)NC(=O)[C@@H](N)CCCNC(=N)N)C(=O)N[C@@H](Cc1ccccc1)C(=O)N[C@@H](CO)C(=O)N[C@@H](CS)C(=O)N[C@@H](Cc1ccc(O)cc1)C(=O)N[C@H](C)C(=O)N[C@@H](Cc1ccc(O)cc1)C(=O)O` [compound 20] (H-RRR[Nle]FSCY[dA]Y-OH; N-terminus and C-terminus assumed), the “Caspase 3/7 Activity, Percent” value in test [1] is 85.4%. For the same compound, in the test with C2C12 Mouse Myoblasts, the “Glucose Utilization (glucose concentration in medium), Percent of Untreated Control” value stood at 113.2%.
The corresponding values for `CC[C@H](C)[C@H](NC(=O)[C@H](CC(C)C)NC(=O)[C@H](CC(C)C)NC(=O)[C@@H](N)CCSC)C(=O)N[C@@H](CC(C)C)C(=O)N[C@H](C(=O)N[C@@H](CC(C)C)C(=O)N[C@H](C(=O)N[C@@H](CC(C)C)C(=O)N[C@H](C)C(=O)O)C(C)C)[C@@H](C)O` [compound 3] (H-MLLILTLVL[dA]-OH; N-terminus and C-terminus assumed) are 90.9% and 105.2%.
The corresponding values for RQWILHNGGMSFFC [compound 13] are 115.8% and 115.0%.
The corresponding values for MRQWILHNGGMSFFC [compound 12] are 109.7% and 113.6%.
In the case of RRRMFSCYLY [compound 18], in test [1], the “Caspase 3/7 Activity, Percent” value came to 95.7%. In addition, the “Glucose Utilization (glucose concentration in medium), Percent of Untreated Control” value in the test with C2C12 Mouse Myoblasts is given as 124.0%.
MLLILTLVLL [compound 2]: the “Caspase 3/7 Activity, Percent” value in test [1] was determined as 86.6%. For the same compound, the “Glucose Utilization (glucose concentration in medium), Percent of Untreated Control” value in the test with C2C12 Mouse Myoblasts turned out to be 113.5%.
For the compound `CSCC[C@H](NC(=O)CNC(=O)[C@@H](C)NC(=O)[C@H](CC(N)=O)NC(=O)[C@H](Cc1c[nH]cn1)NC(=O)[C@H](CC(C)C)NC(=O)[C@H](CCC(=O)O)NC(=O)[C@H](Cc1c[nH]c2ccccc12)NC(=O)[C@H](CCC(N)=O)NC(=O)[C@@H](N)CCCNC(=N)N)C(=O)N[C@@H](CO)C(=O)N[C@@H](C)C(=O)N[C@@H](Cc1ccccc1)C(=O)N[C@@H](CS)C(=O)O` [compound 15] (H-RQWELHN[dA]GMSAFC-OH; N-terminus and C-terminus assumed), the “Caspase 3/7 Activity, Percent” value in test [1] came out at 114.6%. In the test on C2C12 Mouse Myoblasts, the “Glucose Utilization (glucose concentration in medium), Percent of Untreated Control” value was determined as 115.1%.
The corresponding values for GWVLLYDRHVIGGSLCVVVQVEAY [compound 22] are 105.0% and 70.4%.
In the same order, the values of `CC[C@H](C)[C@H](NC(=O)[C@@H](NC(=O)[C@H](Cc1c[nH]cn1)NC(=O)[C@H](CCCNC(=N)N)NC(=O)[C@H](CC(=O)O)NC(=O)[C@H](Cc1ccc(O)cc1)NC(=O)[C@H](CC(C)C)NC(=O)[C@H](CC(C)C)NC(=O)[C@@H](NC(=O)[C@@H](N)Cc1c[nH]c2ccccc12)C(C)C)C(C)C)C(=O)NCC(=O)NCC(=O)N[C@@H](CO)C(=O)N[C@@H](CC(C)C)C(=O)N[C@@H](CS)C(=O)N[C@H](C(=O)N[C@H](C(=O)N[C@H](C(=O)N[C@@H](CCC(N)=O)C(=O)N[C@H](C(=O)N[C@@H](CCC(=O)O)C(=O)N[C@H](C)C(=O)O)C(C)C)C(C)C)C(C)C)C(C)C` [compound 24] (H-WVLLYDRHVIGGSLCVVVQVE[dA]-OH; N-terminus and C-terminus assumed) are 108.8% and 109.1%.
On to `CC[C@H](C)[C@H](NC(=O)[C@@H](NC(=O)[C@H](Cc1c[nH]cn1)NC(=O)[C@H](CCCNC(=N)N)NC(=O)[C@H](CC(=O)O)NC(=O)[C@H](Cc1ccc(O)cc1)NC(=O)[C@H](CC(C)C)NC(=O)[C@H](CC(C)C)NC(=O)[C@@H](NC(=O)[C@@H](N)Cc1c[nH]c2ccccc12)C(C)C)C(C)C)C(=O)NCC(=O)NCC(=O)N[C@@H](CO)C(=O)N[C@@H](CC(C)C)C(=O)N[C@@H](CS)C(=O)N[C@H](C(=O)N[C@@H](CCC(N)=O)C(=O)N[C@H](C(=O)N[C@@H](CCC(N)=O)C(=O)N[C@H](C(=O)N[C@@H](CCC(=O)O)C(=O)N[C@H](C)C(=O)O)C(C)C)C(C)C)C(C)C` [compound 25] (H-WVLLYDRHVIGGSLCVQVQVE[dA]-OH; N-terminus and C-terminus assumed), for which the “Caspase 3/7 Activity, Percent” value in test [1] came out at 108.8%. Moreover, the “Glucose Utilization (glucose concentration in medium), Percent of Untreated Control” value in the test on C2C12 Mouse Myoblasts is on record as 107.2%.
